# Like-named read-outs stand apart in the source and are kept apart here.
# Experiments:
# human platelets [1] = experiment: ADP-induced aggregation of human platelets; assay type: cell-based; conditions: for inhibition of ADP induced human platelet aggregation: moderate antiaggregating activity
# Description: 1,3Dinitroglycerol ester of prostaglandin D2 inhibited aggregation of human platelets induced by ADP ([…]) in dose 0.1 mg/ml of plasma on 50%.
# RAT COLON = experiment: Rat colon contraction; assay type: cell-based; conditions: for EC50: Rattus norvegicus
# GUINEA PIG TRACHEA = experiment: Isolated guinea pig trachea relaxation / contraction; assay type: cell-based; conditions: for EC50: Cavia porcellus
# RAT STOMACH = experiment: Rat stomach contraction; assay type: cell-based; conditions: for EC50: Rattus norvegicus
# RAT UTERUS = experiment: Rat uterus contraction; assay type: cell-based; conditions: for EC50: Rattus norvegicus
# isolated rat aorta [2] = experiment: Isolated rat aorta relaxation / contraction; assay type: cell-based; conditions: for EC50: Rattus norvegicus; for effect on isolated rat aorta: result in words
# [3] = system: rats with experimental hypercholesterolaemia; experiment: Lipid spectrum of serum of rats with experimental hypercholesterolaemia; assay type: in vivo, rat; conditions: 15 μg/kg intraperitoneally, 6 times per week, one month
# Description: Lipids and lipid fractions in sera of rats with experimental hypercholesterolaemea were determined after one month of animal development with indicated drugs in a dose 15 μg/kg body weight intraperitoneally. 6 times per week. Rats not developed by drugs served as a control group.
# [4] = system: rats with experimental hypercholesterolaemia; experiment: Peroxidation of serum or tissue lipids (MDA) of rats with experimental hypercholesterolaemia; assay type: in vivo, rat; conditions: 15 μg/kg intraperitoneally, 6 times per week, one month
# Description: MDA contents as a parameter of lipid peroxidation were estimated after one month of animal development with indicated drugs in a dose 15 μg/kg body weight intraperitoneally, 6 times per week. Rats not developed by drugs served as a control.
# mice [5] = experiment: Toxicity in mice; assay type: in vivo
# heart rate = experiment: Heart rate and tachyphylaxis in experimental animals; assay type: in vivo
# rat and rabbit tissues = experiment: Hypertensive activity in experiments with rat and rabbit tissues; conditions: relative to parent PGE2
# mice [6] = experiment: Mice survival under toxic concentration of NO2; assay type: in vivo; conditions: NO2 (700 mg/m^3); 1 mg/kg; control 17
# Description: (§1) NITROPROSTON protected laboratory animals from a variety of noxious factors. It increased the survival of mice in an atmosphere with elevated CO or NO2 concentration: survival in the experimental group was 1.5-4 times higher than in the control group.
# (§2) INFLUENCE OF NITROPROSTON ON MICE SURVIVAL
# (§3) TOXIC CONCENTRATION OF CO OR NO2
# isolated rat aorta [7] = experiment: Stability of ethanolic solution of NITROPROSTON (relaxation of isolated rat aorta contracted with adrenaline after storage); assay type: cell-based; conditions: read-out: Relaxation of isolated rat aorta contracted with adrenaline, ED5O
# Description: Stability of ethanolic solution of NITROPROSTON.
# Relaxation of isolated rat aorta
# months contracted with adrenaline, ED5O, M*10^-6
# [8] = system: volunteers and patients with bronchus obstruction; experiment: Bronchodilation in volunteers and patients with bronchus obstruction; assay type: in vivo, human; conditions: given as a spray (5-7×10^-3 mg per dose)
# Description: This raises the possibility of using NITROPROSTON to treat bronchospasms.
# mice [9] = experiment: Mice survival under toxic concentration of CO; assay type: in vivo
# Description: as §1, §2, §3
# mice [10] = experiment: Mice survival under conditions of hypobaric hypoxia; assay type: in vivo; conditions: Hypobary (9000 m); 1 mg/kg; control 18.5
# Description: as §2
# UNDER CONDITIONS OF HYPOBARIC HYPOXIA AND
# human platelets [11] = conditions: parent compound, no own test described; cited from earlier work
# [12] = compared with prostaglandin F2α
# [13] = read-out: GUINEA PIG TRACHEA relaxation, EC50
# [14] = contraction, read-out: stimulating rat uterine contractions, EC50
# [15] = read-out: RAT UTERUS, contraction, EC50
# [16] = read-out: ISOLATED RAT AORTA relaxation, EC50
# [17] = relaxation, read-out: vasodilating effect on the isolated rat aorta, EC50
smiles,measurement,setting,value
"CCCCC/C=C\C/C=C\C/C=C\C/C=C\CCCC(=O)OC(CO[N+](=O)[O-])CO[N+](=O)[O-] [1,3-dinitroglycerol ester of arachidonic acid]",inhibition of aggregation of human platelets induced by ADP,"human platelets [1]; ADP (1×10^-5), dose 0.1 mg/ml of plasma",almost completely inhibited
"CC/C=C\C/C=C\C/C=C\C/C=C\C/C=C\C/C=C\CCC(=O)OC(CO[N+](=O)[O-])CO[N+](=O)[O-] [1,3-dinitroglycerol ester of docosahexaenoic acid]",inhibition of ADP induced human platelet aggregation,human platelets [1],30-50%
"CC/C=C\C/C=C\C/C=C\CCCCCCCC(=O)OC(CO[N+](=O)[O-])CO[N+](=O)[O-] [1,3-dinitroglycerol ester of 9,12,15-octadecatrienoic acid]",inhibition of ADP induced human platelet aggregation,human platelets [1],30-50%
"CCCCC[C@H](O)/C=C/[C@H]1C(=O)C[C@H](O)[C@@H]1C/C=C\CCCC(=O)OC(CO[N+](=O)[O-])CO[N+](=O)[O-] [1,3-dinitroglycerol ester of prostaglandin D2]",inhibition at 100 µg/mL,"human platelets [1]; Homo sapiens, Platelet, ADP (1×10M), dose 0.1 mg/ml of plasma",50%
CCC=CCC=CCC=CCC=CC=CC(O)CCCC(=O)OCC(CO[N+](=O)[O-])O[N+](=O)[O-] (centres unmarked) [dinitroglycerol ester of 5-hydroxyeicosapentaenoic acid],inhibition of ADP induced human platelet aggregation,human platelets [1],30-50%
"CCCCC[C@H](O)/C=C/[C@@H]1[C@@H](C/C=C\CCCC(=O)OC(CO[N+](=O)[O-])CO[N+](=O)[O-])[C@@H](O)C[C@H]1O [NITROPROST-F, 1,3-dinitroglycerol ester of prostaglandin F2α]",EC50,RAT COLON,175 ± 70 nM
same,effectiveness on rat colon,RAT COLON; [12],as effective as prostaglandin F2α
same,EC50,GUINEA PIG TRACHEA; [13],10000 ± 1500 nM
same,EC50,RAT STOMACH,130 ± 10 nM
same,activity in rat stomach contraction,RAT STOMACH; [12],lower activity
same,EC50,RAT UTERUS; [14],9 nM
same,EC50,RAT UTERUS; [15],9 ± 1.7 nM
same,"effectiveness in stimulating rat uterine contractions, times more than prostaglandin F2α",RAT UTERUS; relative to prostaglandin F2α,more than 10 times
same,EC50,isolated rat aorta [2]; [16],540 ± 190 nM
"CCCCC[C@H](O)/C=C/[C@H]1[C@H](O)CC(=NO)[C@@H]1CCCCCCC(=O)OC(CO[N+](=O)[O-])CO[N+](=O)[O-] [NITROPROX, 1,3-dinitroglycerol ester of 9-oxyiminoprostaglandin E1]","HDL cholesterol (HDLC), changes of the contents (%, relative to control)",[3],114%
same,"HDLC/TSC, changes (%, relative to control)",[3],138%
same,"LDL cholesterol, changes of the contents (%, relative to control)",[3],76%
same,"Total lipids, changes of the contents (%, relative to control)",[3],92%
same,"Total serum cholesterol (TSC), changes of the contents (%, relative to control)",[3],96%
same,"Triglicerides, changes of the contents (%, relative to control)",[3],79%
same,"MDA level (%, relative to control), Aorta",[4],32%
same,"MDA level (%, relative to control), Liver",[4],104%
same,"MDA level (%, relative to control), Serum",[4],101%
same,IC50,"human platelets [1]; Homo sapiens, Platelet, read-out: antiaggregating properties, IC50, ADP-induced aggregation of human platelets",1100 nM
same,EC50,isolated rat aorta [2]; [17],640 nM
"CCCCC[C@H](O)/C=C/[C@H]1[C@H](O)CC(=O)[C@@H]1CCCCCCC(=O)OC(CO[N+](=O)[O-])CO[N+](=O)[O-] [PROSTANIT, 1,3-dinitroglycerol ester of prostaglandin E1]","HDL cholesterol (HDLC), changes of the contents (%, relative to control)",[3],76%
same,"HDLC/TSC, changes (%, relative to control)",[3],122%
same,"LDL cholesterol, changes of the contents (%, relative to control)",[3],70%
same,"Total lipids, changes of the contents (%, relative to control)",[3],72%
same,"Total serum cholesterol (TSC), changes of the contents (%, relative to control)",[3],78%
same,"Triglicerides, changes of the contents (%, relative to control)",[3],72%
same,IC50,"human platelets [1]; Homo sapiens, Platelet, read-out: inhibition of ADP-induced aggregation of human platelets, IC50",190 nM
same,EC50,"isolated rat aorta [2]; relaxation, read-out: relaxing effect on the isolated rat aorta, EC50",2100 nM
"CCCCC[C@H](O)/C=C/[C@H]1[C@H](O)CC(=O)[C@@H]1C/C=C\CCCC(=O)OC(CO[N+](=O)[O-])CO[N+](=O)[O-] [NITROPROSTON, 1,3-dinitroglycerol ester of prostaglandin E2]",EC50,GUINEA PIG TRACHEA; [13],7 nM
same,EC50,"GUINEA PIG TRACHEA; relaxation, read-out: bronchodilating activity, EC50 in isolated guinea pig trachea",7.18 nM
same,LD50,mice [5],> 100 mg
same,"HDL cholesterol (HDLC), changes of the contents (%, relative to control)",[3],123%
same,"HDLC/TSC, changes (%, relative to control)",[3],128%
same,"LDL cholesterol, changes of the contents (%, relative to control)",[3],57%
same,"Total lipids, changes of the contents (%, relative to control)",[3],67%
same,"Total serum cholesterol (TSC), changes of the contents (%, relative to control)",[3],95%
same,"Triglicerides, changes of the contents (%, relative to control)",[3],95%
same,"MDA level (%, relative to control), Aorta",[4],44%
same,"MDA level (%, relative to control), Liver",[4],77%
same,"MDA level (%, relative to control), Serum",[4],85%
same,effect on heart rate,heart rate,did not affect the heart rate
same,tachyphylaxis,heart rate,no tachyphylaxis was observed
same,"hypertensive activity, times higher than that of the parent PGE2",rat and rabbit tissues,5 times
same,"Survival, %",mice [6],65%
same,EC50,isolated rat aorta [7]; time of storage 1 month,1540 ± 210 nM
same,EC50,isolated rat aorta [7]; time of storage 12 months,1770 ± 148 nM
same,EC50,RAT STOMACH,60 ± 10 nM
same,bronchodilation in volunteers and patients with bronchus obstruction,[8],"potent, effective bronchodilator"
same,"Survival, %","mice [9]; CO (11 g/m^3), 1 mg/kg, control 41",66%
same,"survival in the experimental group, times higher than in the control group","mice [9]; mice, atmosphere with elevated CO or NO2 concentration",1.5-4 times
same,"Survival, %",mice [10],82%
same,EC50,RAT UTERUS; [15],400 ± 100 nM
same,EC50,isolated rat aorta [2]; [16],680 ± 120 nM
same,EC50,isolated rat aorta [2]; [17],680 nM
"CCCCC[C@H](O)/C=C/[C@H]1[C@H](O)CC(=O)[C@@H]1C/C=C\CCCC(=O)O [PGE2, prostaglandin E2, reference compound]",EC50,GUINEA PIG TRACHEA; [13],140 ± 80 nM
same,EC50,RAT STOMACH,40 ± 15 nM
same,EC50,RAT UTERUS; [15],80 ± 16 nM
same,EC50,"isolated rat aorta [2]; read-out: ISOLATED RAT AORTA contraction, EC50",84000 ± 1000 nM
same,effect on isolated rat aorta,isolated rat aorta [2],induced muscle contraction
CCCCC/C=C\C/C=C\C/C=C\C/C=C\CCCC(=O)O [arachidonic acid],effect on platelet aggregation (parent acid),human platelets [11],powerful inducer of platelet aggregation
"CCCCC[C@H](O)/C=C/[C@@H]1[C@@H](C/C=C\CCCC(=O)O)[C@@H](O)C[C@H]1O [PGF2α, prostaglandin F2α, reference compound]",EC50,RAT COLON,130 ± 71 nM
same,effect on isolated guinea pig trachea,GUINEA PIG TRACHEA; result in words,contraction
same,EC50,RAT STOMACH,50 ± 15 nM
same,EC50,RAT UTERUS; [14],110 nM
same,EC50,RAT UTERUS; [15],110 ± 40 nM
same,effect on isolated rat aorta,isolated rat aorta [2],contraction
